{
  "source": "ChEMBL document CHEMBL1131042",
  "about": "“beta-Lactam derivatives as inhibitors of human cytomegalovirus protease” (J Med Chem, 1998)",
  "key": {"[1]": {"assay": "Time taken to reduce 50% of the concentration of compound in blood plasma", "assay_type": "ADME, tissue-based", "conditions": "human"}, "Pancreatic elastase": {"molecular_target": "Pancreatic elastase (Sus scrofa, UniProt P08419+P00772)", "assay": "Compound was tested for its activity against porcine Pancreatic elastase", "assay_type": "protein assay"}, "Neutrophil elastase": {"molecular_target": "T1, Neutrophil elastase (Homo sapiens, UniProt P08246)", "T1 sequence (P08246 whole entry)": "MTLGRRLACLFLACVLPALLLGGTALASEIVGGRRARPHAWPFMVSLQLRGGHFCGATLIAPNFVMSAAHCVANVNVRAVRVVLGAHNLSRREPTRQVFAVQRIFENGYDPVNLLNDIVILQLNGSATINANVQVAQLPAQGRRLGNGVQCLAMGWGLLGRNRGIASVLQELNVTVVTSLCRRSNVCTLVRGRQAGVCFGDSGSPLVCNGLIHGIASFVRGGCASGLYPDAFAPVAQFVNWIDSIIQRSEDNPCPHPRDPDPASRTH", "assay": "Compound was tested for its activity against human leukocyte elastase(HLE)"}, "Chymotrypsinogen A": {"molecular_target": "Chymotrypsinogen A (Bos taurus, UniProt P00766)", "assay": "Compound was tested for its activity against bovine pancreatic Alpha-chymotrypsin (BPC)"}},
  "data": [
    {"smiles": "O=C1C[C@H](Cc2ccccc2)N1C(=O)NCCc1ccccc1", "values": [
      {"measurement": "half-life", "setting": "[1]", "result": 36, "unit": "h"}
    ]},
    {"smiles": "CN(Cc1ccccc1)C(=O)N1C(=O)C[C@@H]1Cc1ccccc1", "values": [
      {"measurement": "half-life", "setting": "[1]", "result": 36, "unit": "h"}
    ]},
    {"smiles": "O=C1C[C@H](Cc2ccccc2)N1C(=O)N(Cc1ccccc1)OCc1ccccc1", "values": [
      {"measurement": "half-life", "setting": "[1]", "result": "< 12", "unit": "h"}
    ]},
    {"smiles": "O=C1C[C@H](Cc2ccccc2)N1C(=O)NCc1ccccn1", "values": [
      {"measurement": "half-life", "setting": "[1]", "result": 36, "unit": "h"}
    ]},
    {"smiles": "C[C@H]1C(=O)N(C(=O)NCc2ccncc2)[C@H]1Cc1ccccc1", "values": [
      {"measurement": "half-life", "setting": "[1]", "result": 36, "unit": "h"},
      {"measurement": "IC50", "setting": "Pancreatic elastase", "result": 19, "unit": "µM"}
    ]},
    {"smiles": "O=C1C[C@H](Cc2ccccc2)N1C(=O)Nc1ccc(F)cc1", "values": [
      {"measurement": "half-life", "setting": "[1]", "result": "< 12", "unit": "h"}
    ]},
    {"smiles": "CO[C@@H]1C(=O)N(C(=O)NCc2ccncc2)[C@H]1Cc1ccccc1", "values": [
      {"measurement": "half-life", "setting": "[1]", "result": "< 12", "unit": "h"},
      {"measurement": "IC50", "setting": "Neutrophil elastase", "result": 0.9, "unit": "µM"},
      {"measurement": "IC50", "setting": "Pancreatic elastase", "result": 0.3, "unit": "µM"},
      {"measurement": "IC50", "setting": "Chymotrypsinogen A", "result": 38, "unit": "µM"}
    ]},
    {"smiles": "Cc1ccc(NC(=O)N2C(=O)C[C@@H]2Cc2ccccc2)cc1", "values": [
      {"measurement": "half-life", "setting": "[1]", "result": "< 12", "unit": "h"}
    ]},
    {"smiles": "CC[C@@H]1C(=O)N(C(=O)NCc2ccncc2)[C@H]1Cc1ccccc1", "values": [
      {"measurement": "half-life", "setting": "[1]", "result": 48, "unit": "h"},
      {"measurement": "IC50", "setting": "Pancreatic elastase", "result": 1.7, "unit": "µM"},
      {"measurement": "IC50", "setting": "Chymotrypsinogen A", "result": 19, "unit": "µM"}
    ]},
    {"smiles": "O=C1C[C@H](Cc2ccccc2)N1C(=O)Nc1ccccc1", "values": [
      {"measurement": "half-life", "setting": "[1]", "result": "< 12", "unit": "h"}
    ]},
    {"smiles": "CON(Cc1ccccc1)C(=O)N1C(=O)C[C@@H]1Cc1ccccc1", "values": [
      {"measurement": "half-life", "setting": "[1]", "result": "< 12", "unit": "h"}
    ]},
    {"smiles": "C[C@@H]1C(=O)N(C(=O)NCc2ccncc2)[C@H]1Cc1ccccc1", "values": [
      {"measurement": "half-life", "setting": "[1]", "result": 36, "unit": "h"},
      {"measurement": "IC50", "setting": "Pancreatic elastase", "result": 53, "unit": "µM"}
    ]},
    {"smiles": "O=C1C[C@H](Cc2ccccc2)N1C(=O)N(Cc1ccccc1)C1CC1", "values": [
      {"measurement": "half-life", "setting": "[1]", "result": 48, "unit": "h"}
    ]},
    {"smiles": "O=C1C[C@H](Cc2ccccc2)N1C(=O)NCc1ccccc1", "values": [
      {"measurement": "half-life", "setting": "[1]", "result": 36, "unit": "h"}
    ]},
    {"smiles": "CS[C@@H]1C(=O)N(C(=O)NCc2ccncc2)[C@H]1Cc1ccccc1", "values": [
      {"measurement": "half-life", "setting": "[1]", "result": "< 12", "unit": "h"},
      {"measurement": "IC50", "setting": "Neutrophil elastase", "result": "< 0.2", "unit": "µM"},
      {"measurement": "IC50", "setting": "Pancreatic elastase", "result": "< 0.2", "unit": "µM"},
      {"measurement": "IC50", "setting": "Chymotrypsinogen A", "result": 2.2, "unit": "µM"}
    ]},
    {"smiles": "C=CC[C@@H]1C(=O)N(C(=O)NCc2ccncc2)[C@H]1Cc1ccccc1", "values": [
      {"measurement": "half-life", "setting": "[1]", "result": 36, "unit": "h"},
      {"measurement": "IC50", "setting": "Neutrophil elastase", "result": 0.3, "unit": "µM"},
      {"measurement": "IC50", "setting": "Pancreatic elastase", "result": 4.7, "unit": "µM"},
      {"measurement": "IC50", "setting": "Chymotrypsinogen A", "result": 6, "unit": "µM"}
    ]},
    {"smiles": "CCN(Cc1ccccc1)C(=O)N1C(=O)C[C@@H]1Cc1ccccc1", "values": [
      {"measurement": "half-life", "setting": "[1]", "result": 48, "unit": "h"}
    ]},
    {"smiles": "COc1ccc(NC(=O)N2C(=O)C[C@@H]2Cc2ccccc2)cc1", "values": [
      {"measurement": "half-life", "setting": "[1]", "result": 12, "unit": "h"}
    ]},
    {"smiles": "O=C1C[C@H](Cc2ccccc2)N1C(=O)NCc1ccncc1", "values": [
      {"measurement": "half-life", "setting": "[1]", "result": 24, "unit": "h"},
      {"measurement": "IC50", "setting": "Neutrophil elastase", "result": "> 75", "unit": "µM"},
      {"measurement": "IC50", "setting": "Pancreatic elastase", "result": "> 75", "unit": "µM"},
      {"measurement": "IC50", "setting": "Chymotrypsinogen A", "result": "> 75", "unit": "µM"}
    ]},
    {"smiles": "O=C1C[C@H](Cc2ccccc2)N1C(=O)NC1CCCCC1", "values": [
      {"measurement": "half-life", "setting": "[1]", "result": 24, "unit": "h"}
    ]},
    {"smiles": "O=C1C[C@H](Cc2ccccc2)N1C(=O)NCc1cccnc1", "values": [
      {"measurement": "half-life", "setting": "[1]", "result": 24, "unit": "h"}
    ]},
    {"smiles": "CC1(C)C(=O)N(C(=O)NCc2ccncc2)[C@H]1Cc1ccccc1", "values": [
      {"measurement": "half-life", "setting": "[1]", "result": 120, "unit": "h"},
      {"measurement": "IC50", "setting": "Neutrophil elastase", "result": 3, "unit": "µM"},
      {"measurement": "IC50", "setting": "Pancreatic elastase", "result": 45, "unit": "µM"},
      {"measurement": "IC50", "setting": "Chymotrypsinogen A", "result": "> 75", "unit": "µM"}
    ]},
    {"smiles": "CC1(C)C(=O)N(C(=O)NCc2ccncc2)C1Cc1ccccc1", "note": "(single isomer, unassigned)", "values": [
      {"measurement": "half-life", "setting": "[1]", "result": 120, "unit": "h"}
    ]}
  ]
}
